Test results published in PMC11842024, “Reversible male contraception by targeted inhibition of serine/threonine kinase 33” (Science (New York, N.Y.), 2024).

Tests used:
[1] = Metabolic stability assay in liver microsomes (MLM); assay type: in vitro ADME, mouse; details: 2.0 µM, 0.5 mg protein/mL, NADPH, data >60 min is an extrapolated estimate; for half-life at 2 µM: mouse, liver microsomes, read-out: Metabolic stability MLM, t1/2
Description: (§1) Metabolic stability assay in liver microsomes. The stabilities of CDD-2110, CDD-2211, CDD-2212, CDD-2807, and CDD-3348 in liver microsomes with/without Uridine Diphosphate Glucuronic Acid (UDP-GA, a cofactor of UDP-glucuronosyltransferases) were performed and half-life was calculated as previously reported (36). Briefly, each CDD compound (2.0 μM) was incubated in the mouse or human liver microsomes (0.5 mg protein/mL) at 37°C in 1× PBS fortified with NADPH (1.0 mM) and with/without UDP-GA (2.5 mM). Alamethicin (25 µg/mL) as a pore forming agent was used for the glucuronidation (Table S2A). The samples were collected at specific time-points 0, 30, and 60 min in duplicate. The reactions were terminated by adding equivalent volume of ice-cold methanol (CH3OH) and vortexed. After centrifugation at 15000 g for 10 min, 3.0 μL of the supernatant was analyzed by Thermo TSQ Quantis MS coupled with a Thermo Vanquish UHPLC (San Jose, CA) equipped with a Luna C18 column (1 mm × 50 mm, 1.6 µm, Phenomenex, Torrance, CA). The column temperature was maintained at 40°C. CDD-2807 was monitored under the selected reaction monitoring (SRM) mode coupled with a positive electrospray ionization (ESI) source. The SRM ion pairs were 447→321 for CDD-2807.

[2] = Metabolic stability assay in liver microsomes (HLM); assay type: in vitro ADME, human; details: 2.0 µM, 0.5 mg protein/mL, NADPH, data >60 min is an extrapolated estimate; for half-life at 2 µM: human, liver microsomes, read-out: Metabolic stability HLM, t1/2
Description: as §1

[3] = biological target: T1, CLK1 (Homo sapiens, UniProt P49759); assay: NanoBRET target engagement intracellular kinase assay; assay type: cell-based; design: host or cells: HEK293 (HEK293T cultured); details: for IC50: HEK293 cells, 2 hours incubation; for Fold NanoBRET IC50 CLK1 over STK33 (in parentheses): selectivity vs STK33
T1 sequence (P49759 whole entry): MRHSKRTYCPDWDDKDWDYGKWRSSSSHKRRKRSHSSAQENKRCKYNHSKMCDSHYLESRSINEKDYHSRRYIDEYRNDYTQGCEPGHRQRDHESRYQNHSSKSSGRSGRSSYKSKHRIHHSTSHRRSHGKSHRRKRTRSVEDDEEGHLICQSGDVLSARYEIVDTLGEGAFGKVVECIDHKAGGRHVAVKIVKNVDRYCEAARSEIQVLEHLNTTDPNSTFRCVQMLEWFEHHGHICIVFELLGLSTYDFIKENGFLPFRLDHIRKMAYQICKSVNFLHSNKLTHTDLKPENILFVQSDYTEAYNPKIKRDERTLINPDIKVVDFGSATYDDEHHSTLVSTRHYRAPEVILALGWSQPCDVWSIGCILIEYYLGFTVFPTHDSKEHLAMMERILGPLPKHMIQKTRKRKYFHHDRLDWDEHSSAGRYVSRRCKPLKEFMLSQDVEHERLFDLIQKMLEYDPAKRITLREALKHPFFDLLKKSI
Description: (§2) NanoBRET Target Engagement intracellular kinase assay. HEK293T cells were cultured in […]
(§3) The cell line underwent authentication by short tandem repeat (STR) profiling at Cytogenetics and Cell Authentication Core (CCAC) at MD Anderson Cancer Center. NanoBRET Target Engagement intracellular kinase assay, K-10 assay (Cat. # N2641), K-9 assay (Cat. # N2631), transfection reagent FuGENE HD (Cat. # E2311), transfection carrier DNA (Cat. # E4881), NanoLuc-STK33 fusion vector (Cat. # NV2111), NanoLuc-RET fusion vector (Cat. # NV1951), NanoLuc-CLK1 fusion vector (Cat. # NV1131), NanoLuc-CLK2 fusion vector (Cat. # NV1141), and NanoLuc-CLK4 fusion vector (Cat. # NV1151) were purchased from Promega. The measurement of test compound engagement with cellular target protein was performed in a 384-well format according to manufacturer’s instructions. HEK293 cells were transiently transfected with NanoLuc (STK33, RET, CLK1, CLK2, and CLK4) fusion vectors. After 36 hours of transfection, cells were treated with a fixed concentration of tracer (recommended by Promega) followed by compounds (inhibitors) for 2 hours of incubation. To determine the test compound […]
(§4) 0.4 nM at a fixed tracer concentration. Staurosporine was measured in parallel as a positive control.
(§5) Freshly prepared NanoBRET Nano-Glo substrate plus extracellular NanoLuc inhibitor was then added to initiate the subsequent bioluminescence resonance energy transfer (BRET) measurements using a CLARIOstar Plus BMG LABTECH plate reader. Data analysis was done by measuring the ratio of acceptor emission to donor emission (BRET ratio) and normalized by subtracting no-tracer-control-background. IC50 values were obtained by nonlinear regression using a four-parameter equation in GraphPad Prism 7 (San Diego, CA).

[4] = biological target: T2, CLK2 (Homo sapiens, UniProt P49760); assay: as above; assay type: cell-based; design: host or cells: HEK293 (HEK293T cultured); details: for IC50: HEK293 cells, 2 hours incubation; for Fold NanoBRET IC50 CLK2 over STK33 (in parentheses): selectivity vs STK33
T2 sequence (P49760 whole entry): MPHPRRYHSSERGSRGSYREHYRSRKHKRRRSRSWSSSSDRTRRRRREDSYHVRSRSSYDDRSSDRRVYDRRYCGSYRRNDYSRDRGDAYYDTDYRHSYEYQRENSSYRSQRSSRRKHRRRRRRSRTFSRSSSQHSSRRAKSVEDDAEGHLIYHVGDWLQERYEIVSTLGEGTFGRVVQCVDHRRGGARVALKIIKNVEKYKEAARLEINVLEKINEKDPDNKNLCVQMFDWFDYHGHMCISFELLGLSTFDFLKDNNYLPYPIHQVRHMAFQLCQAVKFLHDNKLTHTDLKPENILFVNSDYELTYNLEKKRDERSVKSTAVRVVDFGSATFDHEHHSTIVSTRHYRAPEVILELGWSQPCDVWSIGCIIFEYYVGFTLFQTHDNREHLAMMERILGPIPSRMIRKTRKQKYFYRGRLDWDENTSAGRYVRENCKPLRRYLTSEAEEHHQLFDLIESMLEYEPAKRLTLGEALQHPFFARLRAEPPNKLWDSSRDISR
Description: as §2, §3, §4, §5

[5] = biological target: T3, CLK4 (Homo sapiens, UniProt Q9HAZ1); assay: as above; assay type: cell-based; design: host or cells: HEK293 (HEK293T cultured); details: for IC50: HEK293 cells, 2 hours incubation; for Fold NanoBRET IC50 CLK4 over STK33 (in parentheses): selectivity vs STK33
T3 sequence (Q9HAZ1 whole entry): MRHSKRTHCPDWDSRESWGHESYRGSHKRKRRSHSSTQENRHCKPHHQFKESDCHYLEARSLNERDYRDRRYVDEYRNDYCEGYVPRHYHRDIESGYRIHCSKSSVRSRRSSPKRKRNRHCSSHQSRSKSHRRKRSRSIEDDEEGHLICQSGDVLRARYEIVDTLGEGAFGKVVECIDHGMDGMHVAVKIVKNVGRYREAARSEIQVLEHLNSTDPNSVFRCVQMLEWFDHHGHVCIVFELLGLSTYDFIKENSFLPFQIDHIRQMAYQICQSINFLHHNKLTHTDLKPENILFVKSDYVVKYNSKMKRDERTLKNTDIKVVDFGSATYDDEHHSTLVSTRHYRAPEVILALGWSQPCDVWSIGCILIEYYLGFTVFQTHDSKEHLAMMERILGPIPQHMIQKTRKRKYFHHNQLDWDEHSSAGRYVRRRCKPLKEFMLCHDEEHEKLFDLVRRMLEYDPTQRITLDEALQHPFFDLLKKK
Description: as §2, §3, §4, §5

[6] = biological target: T4, RET (Homo sapiens, UniProt P07949); assay: as above; assay type: cell-based; design: host or cells: HEK293 (HEK293T cultured); details: for IC50: HEK293 cells, 2 hours incubation; for Fold NanoBRET IC50 RET over STK33 (in parentheses): selectivity vs STK33
T4 sequence (P07949 29-1114): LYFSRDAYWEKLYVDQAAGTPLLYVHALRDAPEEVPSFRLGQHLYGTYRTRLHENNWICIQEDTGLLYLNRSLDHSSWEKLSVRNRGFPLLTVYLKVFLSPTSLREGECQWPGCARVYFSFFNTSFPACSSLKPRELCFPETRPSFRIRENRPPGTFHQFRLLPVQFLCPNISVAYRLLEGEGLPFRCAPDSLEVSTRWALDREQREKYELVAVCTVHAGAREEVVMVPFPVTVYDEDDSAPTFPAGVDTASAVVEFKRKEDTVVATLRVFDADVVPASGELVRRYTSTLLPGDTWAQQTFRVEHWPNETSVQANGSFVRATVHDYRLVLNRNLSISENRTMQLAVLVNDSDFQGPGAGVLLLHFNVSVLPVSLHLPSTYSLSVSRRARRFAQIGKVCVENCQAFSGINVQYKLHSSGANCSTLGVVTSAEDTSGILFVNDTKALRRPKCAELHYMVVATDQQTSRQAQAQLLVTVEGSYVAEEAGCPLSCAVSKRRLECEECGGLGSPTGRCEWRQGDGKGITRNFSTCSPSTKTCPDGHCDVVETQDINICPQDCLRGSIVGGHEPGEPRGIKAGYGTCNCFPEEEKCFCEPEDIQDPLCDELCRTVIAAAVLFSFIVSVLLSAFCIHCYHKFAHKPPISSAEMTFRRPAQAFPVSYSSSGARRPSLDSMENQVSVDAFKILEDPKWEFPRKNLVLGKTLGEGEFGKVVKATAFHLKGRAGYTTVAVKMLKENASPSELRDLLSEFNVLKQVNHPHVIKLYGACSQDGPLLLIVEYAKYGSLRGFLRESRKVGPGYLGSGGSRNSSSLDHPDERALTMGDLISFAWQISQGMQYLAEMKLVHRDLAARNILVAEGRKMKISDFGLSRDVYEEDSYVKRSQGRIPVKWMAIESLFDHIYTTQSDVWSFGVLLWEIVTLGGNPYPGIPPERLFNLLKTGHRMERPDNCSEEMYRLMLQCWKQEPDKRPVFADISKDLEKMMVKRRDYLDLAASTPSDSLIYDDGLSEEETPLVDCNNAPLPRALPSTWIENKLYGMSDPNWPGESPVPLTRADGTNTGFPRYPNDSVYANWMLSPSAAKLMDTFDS
Description: as §2, §3, §4, §5

[7] = biological target: T5, STK33 (Homo sapiens, UniProt Q9BYT3); assay: as above; assay type: cell-based; design: host or cells: HEK293 (HEK293T cultured); details: for IC50: HEK293 cells, 2 hours incubation
T5 sequence (Q9BYT3 whole entry): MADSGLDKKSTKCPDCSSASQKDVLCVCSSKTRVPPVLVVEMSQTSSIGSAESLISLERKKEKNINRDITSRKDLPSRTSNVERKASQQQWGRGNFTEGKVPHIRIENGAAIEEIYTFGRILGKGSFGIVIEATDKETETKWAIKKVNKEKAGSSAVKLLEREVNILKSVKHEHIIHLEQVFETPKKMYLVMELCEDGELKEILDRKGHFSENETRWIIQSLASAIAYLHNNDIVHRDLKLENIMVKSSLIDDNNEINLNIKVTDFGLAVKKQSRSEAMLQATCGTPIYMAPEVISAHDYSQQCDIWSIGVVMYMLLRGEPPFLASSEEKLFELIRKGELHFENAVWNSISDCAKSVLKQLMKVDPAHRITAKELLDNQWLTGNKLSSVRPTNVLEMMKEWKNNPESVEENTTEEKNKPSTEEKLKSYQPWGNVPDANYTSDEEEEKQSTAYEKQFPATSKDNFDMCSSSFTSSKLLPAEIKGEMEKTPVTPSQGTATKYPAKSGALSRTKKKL
Description: as §2, §3, §4, §5

[8] = biological target: T5, STK33; assay: LanthaScreen binding assay (ThermoFisher SelectScreen); design: purchased SelectScreen Services (ThermoFisher)
Text: (§6) In vitro biochemical assays. Several small molecule assays were outsourced to SelectScreen Services (ThermoFisher) for STK33 and for off-target kinases (data sets are available on demand).
(§7) These assays are LanthaScreen (binding assay) and Z’-LYTE (activity assay). Dose-responses were done with at least 5 different concentrations in duplicates, and parameters were optimized by calculations described below and provided with standard errors.
(§8) Calculation of Kd values for kinase inhibitors that bind to the ATP pocket of a kinase from LanthaScreen binding data. DynaFit (71) was used to fit complex equilibria where a tracer is displaced by a dilution series of a kinase inhibitor. This method relies on the concentration of inhibitor, as well as the concentration of kinase and tracer, and Kd of the tracer. The latter three parameters are tabulated by ThermoFisher for each kinase in the LanthaScreen assay panel. […]
Since Kd and Ki values are defined the same way, in other words, Kd = [E] [I] / [EI] = Ki, Kd and Ki values can be compared. […]

[9] = biological target: T3, CLK4; assay: as above; design: purchased SelectScreen Services (ThermoFisher)
Text: as §6, §7, §8

[10] = biological target: T1, CLK1; assay: Z'-LYTE activity assay (ThermoFisher SelectScreen); assay type: biochemical; design: purchased SelectScreen Services (ThermoFisher); details: [ATP] = Kmapp
Text: as §6
(§9) These assays are LanthaScreen (binding assay) and Z’-LYTE (activity assay). Dose-responses were done with at least 5 different concentrations in duplicates, and parameters were optimized by calculations described below and provided with standard errors. […]
(§10) Calculation of Ki values for kinase inhibitors from Z’-LYTE inhibition data. The Morrison equation with [ATP] = Kmapp for competitive inhibition (GraphPad Prism 7, San Diego, CA) was used to get Ki values. Since Kd and Ki values are defined the same way, in other words, Kd = [E] [I] / [EI] = Ki, Kd and Ki values can be compared. […]

[11] = biological target: T2, CLK2; assay: Z'-LYTE activity assay (ThermoFisher SelectScreen); assay type: biochemical; design: purchased SelectScreen Services (ThermoFisher); details: [ATP] = Kmapp
Text: as §6, §9, §10

[12] = biological target: T4, RET; assay: Z'-LYTE activity assay (ThermoFisher SelectScreen); assay type: biochemical; design: purchased SelectScreen Services (ThermoFisher); details: [ATP] = Kmapp
Text: as §6, §9, §10

half-life at 2 µM [1] [min] | half-life at 2 µM [2] [min] | IC50 [3] [nM] | Fold NanoBRET IC50 CLK1 over STK33 (in parentheses) [3] [X] | IC50 [4] [nM] | Fold NanoBRET IC50 CLK2 over STK33 (in parentheses) [4] [X] | IC50 [5] [nM] | Fold NanoBRET IC50 CLK4 over STK33 (in parentheses) [5] [X] | IC50 [6] [nM] | Fold NanoBRET IC50 RET over STK33 (in parentheses) [6] [X] | selectivity toward STK33 compared to CLK1, CLK2, CLK4, and RET [7] [fold] | IC50 [7] [nM] | Kd [8] [nM] | Kd [9] [nM] | Ki [10] [nM] | Ki [11] [nM] | Ki [12] [nM] | SMILES | other results
25 | 10 | 1210 | 32 | 917 | 24 | 544 | 14 | 746 | 20 | > 10 | 38 | 0.1 | 9.6 ± 1.2 | 234 ± 18 | 27 ± 6.6 | 3.1 ± 0.3 | CNC(=O)C1CCN(C2CCN(C(=O)c3ccc4[nH]nc(C#Cc5ccccc5-c5ccccc5)c4c3)C2)CC1 (stereo not drawn) [CDD-2110] | fold more potent than published STK33 inhibitors in cellular assays ([7]; vs compound 1, ML281, BRD8899): 20- to 310 fold; fold more potent than published STK33 inhibitors in biochemical assays ([8]; vs compound 1, ML281, BRD8899): 12- to 400 fold
7 | 10 | 115 | 23 | 48 | 10 | 187 | 37 | 78 | 16 | > 10 | 5 | 0.018 | 2.5 ± 0.2 | 38.8 ± 5.5 | 5.4 ± 0.4 | 0.47 ± 0.05 | CN(C)[C@@H]1CCN(C(=O)c2ccc3[nH]nc(C#Cc4ccccc4-c4ccccc4)c3c2)C1 [CDD-2211] | –
9 | 8 | 3230 | 3 | 1550 | 1.5 | 5880 | 6 | 1090 | 1.1 | – | 999 | 1.9 | 21.5 ± 1 | 507 ± 36 | 54.8 ± 3 | 2 ± 1.4 | CN(C)[C@H]1CCN(C(=O)c2ccc3[nH]nc(C#Cc4ccccc4-c4ccccc4)c3c2)C1 [CDD-2212] | –
14 | 13 | 6730 | 40 | 2530 | 15 | 3850 | 23 | 6410 | 38 | > 10 | 169 | 0.06 | 26.2 ± 1.5 | 477 ± 34 | 58.3 ± 3.3 | 5.6 ± 0.5 | CNC(=O)CCC1CCN(C(=O)C2CCN(C3CCN(C(=O)c4ccc5[nH]nc(C#Cc6ccccc6-c6ccccc6)c5c4)C3)CC2)CC1 (stereo not drawn) [CDD-3348] | –
– | – | – | – | – | – | – | – | – | – | – | 46 | – | – | – | – | – | NC1CCN(C(=O)c2ccc3[nH]nc(C#Cc4ccccc4-c4ccccc4)c3c2)C1 (stereo not drawn) [Compound S1] | Metabolic stability MLM, t1/2 [1]: 42 min; Metabolic stability HLM, t1/2 [2]: 277 min
– | – | – | – | – | – | – | – | – | – | – | 647 | – | – | – | – | – | O=C(c1ccc2[nH]nc(C#Cc3ccccc3-c3ccccc3)c2c1)N1CCC(O)C1 (stereo not drawn) [Compound S2] | –
– | – | – | – | – | – | – | – | – | – | – | 52 | – | – | – | – | – | O=C(c1ccc2[nH]nc(C#Cc3ccccc3-c3ccccc3)c2c1)N1CCC2(CCCCN2)C1 (stereo not drawn) [Compound S3] | –
– | – | – | – | – | – | – | – | – | – | – | 517 | – | – | – | – | – | O=C(c1ccc2[nH]nc(C#Cc3ccccc3-c3ccccc3)c2c1)N1CCC2(CCCNC2)C1 (stereo not drawn) [Compound S4] | –
